Activity calls are given as the source filed them. No cut-off for these calls is given here.
Key:
[1] = tested on: Mucor circinelloides; assay: Antifungal activity against Mucor circinelloides M5 strain assessed as reduction in spore germination at 100 ug/ml relative to control; format: functional; design: scale not given: the % may be the effect or the level left; conditions: dose 100 µg/ml
[2] = tested on: Mucor circinelloides; assay: Antifungal activity against Mucor circinelloides R7B wild type strain assessed as reduction in spore germination at 100 ug/ml relative to control; format: functional; design: scale not given: the % may be the effect or the level left; conditions: dose 100 µg/ml
[3] = tested on: Mucor circinelloides; assay: Antifungal activity against Mucor circinelloides R7B wild type strain assessed as reduction in spore germination at 25 ug/ml relative to control; format: functional; design: scale not given: the % may be the effect or the level left; conditions: dose 25 µg/ml
[4] = tested on: Mucor circinelloides; assay: Antifungal activity against Mucor circinelloides R7B wild type strain assessed as reduction in spore germination at 50 ug/ml relative to control; format: functional; design: scale not given: the % may be the effect or the level left; conditions: dose 50 µg/ml
[5] = tested on: Mucor circinelloides; assay: Antifungal activity against Mucor circinelloides M5 strain assessed as reduction in spore germination at 25 ug/ml relative to control; format: functional; design: scale not given: the % may be the effect or the level left; conditions: dose 25 µg/ml
[6] = tested on: Mucor circinelloides; assay: Antifungal activity against Mucor circinelloides M5 strain assessed as reduction in spore germination at 150 ug/ml relative to control; format: functional; design: scale not given: the % may be the effect or the level left; conditions: dose 150 µg/ml
[7] = tested on: Mucor circinelloides; assay: Antifungal activity against Mucor circinelloides M5 strain assessed as reduction in spore germination at 50 ug/ml relative to control; format: functional; design: scale not given: the % may be the effect or the level left; conditions: dose 50 µg/ml
[8] = tested on: Mucor circinelloides; assay: Antifungal activity against Mucor circinelloides R7B wild type strain assessed as reduction in spore germination at 150 ug/ml relative to control; format: functional; design: scale not given: the % may be the effect or the level left; conditions: dose 150 µg/ml
[9] = tested on: Mucor circinelloides; assay: Antifungal activity against Mucor circinelloides R7B wild type strain assessed as non-germinated spores and undifferentiated hyphae at 50 ug/ml by microscopic analysis; format: functional, organism-based; conditions: dose 50.0 µg/ml
[10] = biological target: T1, Lanosterol 14-alpha demethylase (Mus musculus, UniProt Q8K0C4); assay: Inhibition of CYP51 in mouse NIH/3T3 cells assessed as specific enzymatic activity at 50 ug/ml incubated for 48 hrs by ELISA analysis; format: ADME, cell-based; conditions: nih/3t3, 48 h, dose 50 µg/ml
T1 sequence (Q8K0C4 whole entry): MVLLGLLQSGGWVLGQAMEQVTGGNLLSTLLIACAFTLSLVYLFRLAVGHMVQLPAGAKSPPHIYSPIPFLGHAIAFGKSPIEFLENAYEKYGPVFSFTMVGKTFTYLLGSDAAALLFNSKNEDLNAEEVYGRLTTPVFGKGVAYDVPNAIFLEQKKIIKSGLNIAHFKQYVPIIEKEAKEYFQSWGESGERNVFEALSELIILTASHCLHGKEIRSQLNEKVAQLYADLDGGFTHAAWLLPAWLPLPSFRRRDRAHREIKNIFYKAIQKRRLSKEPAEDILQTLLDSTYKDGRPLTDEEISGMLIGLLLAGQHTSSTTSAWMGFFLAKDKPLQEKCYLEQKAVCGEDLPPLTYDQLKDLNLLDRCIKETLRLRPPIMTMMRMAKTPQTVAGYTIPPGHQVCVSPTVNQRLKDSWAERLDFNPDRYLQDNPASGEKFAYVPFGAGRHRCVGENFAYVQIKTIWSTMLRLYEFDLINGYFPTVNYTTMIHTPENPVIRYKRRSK

[11] = Cytotoxicity against mouse NIH/3T3 cells assessed as reduction in cell viability at 200 ug/ml incubated for 48 hrs by MTT assay (reference value: 93.8 +/- 4.9 %); format: toxicity, cell-based, NIH3T3; conditions: at 200 µg/mL, read-out: Activity
[12] = tested on: Mucor circinelloides; assay: Antifungal activity against Mucor circinelloides M5 strain assessed as complete absence of mycelia at 100 to 150 ug/ml by microscopic analysis; format: functional, organism-based; conditions: dose 100-150 µg/ml
[13] = tested on: Mucor circinelloides; assay: Antifungal activity against Mucor circinelloides R7B wild type strain assessed as non-germinated spores at 100 to 150 ug/ml by microscopic analysis; format: functional, organism-based; conditions: dose 100-150 µg/ml
[14] = tested on: Mucor circinelloides; assay: Antifungal activity against Mucor circinelloides R7B wild type strain assessed as few mycelia with several spores at 50 ug/ml by microscopic analysis; format: functional, organism-based; conditions: dose 50.0 µg/ml
[15] = biological target: T1, Lanosterol 14-alpha demethylase; assay: Inhibition of CYP51 in mouse NIH/3T3 cells assessed as specific enzymatic activity at 100 ug/ml incubated for 48 hrs by ELISA analysis; format: ADME, cell-based; conditions: nih/3t3, 48 h, dose 100 µg/ml
[16] = Cytotoxicity against mouse NIH/3T3 cells assessed as reduction in cell viability at 150 ug/ml incubated for 48 hrs by MTT assay (reference value: 93.8 +/- 4.9 %); format: toxicity, cell-based, NIH3T3; conditions: at 150 µg/mL, read-out: Activity
[17] = Cytotoxicity against mouse NIH/3T3 cells assessed as reduction in cell viability at 50 ug/ml incubated for 48 hrs by MTT assay (reference value: 93.8 +/- 4.9 %); format: toxicity, cell-based, NIH3T3; conditions: at 50 µg/mL, read-out: Activity
[18] = biological target: T1, Lanosterol 14-alpha demethylase; assay: Inhibition of CYP51 in mouse NIH/3T3 cells assessed as specific enzymatic activity at 200 ug/ml incubated for 48 hrs by ELISA analysis; format: ADME, cell-based; conditions: nih/3t3, 48 h, dose 200 µg/ml
[19] = biological target: T1, Lanosterol 14-alpha demethylase; assay: Inhibition of CYP51 in mouse NIH/3T3 cells assessed as specific enzymatic activity at 25 ug/ml incubated for 48 hrs by ELISA analysis; format: ADME, cell-based; conditions: nih/3t3, 48 h, dose 25 µg/ml
[20] = biological target: T1, Lanosterol 14-alpha demethylase; assay: Inhibition of CYP51 in mouse NIH/3T3 cells assessed as specific enzymatic activity at 150 ug/ml incubated for 48 hrs by ELISA analysis; format: ADME, cell-based; conditions: nih/3t3, 48 h, dose 150 µg/ml
[21] = tested on: Mucor circinelloides; assay: Antifungal activity against Mucor circinelloides M5 strain assessed as few mycelia with several spores at 50 ug/ml by microscopic analysis; format: functional, organism-based; conditions: dose 50.0 µg/ml
[22] = Cytotoxicity against mouse NIH/3T3 cells assessed as reduction in cell viability at 100 ug/ml incubated for 48 hrs by MTT assay (reference value: 93.8 +/- 4.9 %); format: toxicity, cell-based, NIH3T3; conditions: at 100 µg/mL, read-out: Activity
[23] = tested on: Mucor circinelloides; assay: Antifungal activity against Mucor circinelloides R7B wild type strain assessed as complete absence of mycelia at 100 to 150 ug/ml by microscopic analysis; format: functional, organism-based; conditions: dose 100-150 µg/ml
[24] = Cytotoxicity against mouse NIH/3T3 cells assessed as reduction in cell viability at 25 ug/ml incubated for 48 hrs by MTT assay (reference value: 93.8 +/- 4.9 %); format: toxicity, cell-based, NIH3T3; conditions: at 25 µg/mL, read-out: Activity
[25] = tested on: Mucor circinelloides; assay: Antifungal activity against Mucor circinelloides M5 strain assessed as non-germinated spores and undifferentiated hyphae at 50 ug/ml by microscopic analysis; format: functional, organism-based; conditions: dose 50.0 µg/ml
[26] = tested on: Mucor circinelloides; assay: Antifungal activity against Mucor circinelloides M5 strain assessed as non-germinated spores at 100 to 150 ug/ml by microscopic analysis; format: functional, organism-based; conditions: dose 100-150 µg/ml

## COc1cc(-c2cc(F)cc(F)c2)nc2ccccc12
[1]
  Activity: 29.7%
[2]
  Activity: 32.8%

## Cc1cccc(-c2cc(Oc3ccc([N+](=O)[O-])cc3)c3ccccc3n2)c1
[1]
  Activity: 98.1%
[2]
  Activity: 98.1%

## c1ccc(Oc2cc(-c3ccc4c(c3)OCO4)nc3ccccc23)cc1
[3]
  Activity: 74.2%
[4]
  Activity: 47.6%
[1]
  Activity: 29.5%
[5]
  Activity: 69.7%
[6]
  Activity: 23.4%
[2]
  Activity: 28.2%
[7]
  Activity: 52.8%
[8]
  Activity: 21.6%

## O=[N+]([O-])c1ccc(Oc2cc(-c3ccccc3)nc3ccccc23)cc1
[1]
  Activity: 98.2%
[2]
  Activity: 98.1%

## O=[N+]([O-])c1ccc(Oc2cc(-c3cc(F)cc(F)c3)nc3ccccc23)cc1
[3]
  Activity: 83.9%
[4]
  Activity: 28.3%
[9]
  Activity: Active
[10]
  Activity: 11.21 U/mg
[11]
  viability at 48 h, 200 ug/ml: 15.5%
[12]
  Activity: Active
[1]
  Activity: 11.2%
[5]
  Activity: 82.5%
[6]
  Activity: 7.9%
[13]
  Activity: Active
[14]
  Activity: Active
[15]
  Activity: 6.02 U/mg
[2]
  Activity: 7.9%
[16]
  viability at 48 h, 150 ug/ml: 18.3%
[17]
  viability at 48 h, 50 ug/ml: 91.8%
[18]
  Activity: 0.4 U/mg
[19]
  Activity: 16.7 U/mg
[20]
  Activity: 2.56 U/mg
[21]
  Activity: Active
[22]
  viability at 48 h, 100 ug/ml: 84%
[23]
  Activity: Active
[24]
  viability at 48 h, 25 ug/ml: 94.5%
[25]
  Activity: Active
[26]
  Activity: Active
[7]
  Activity: 37.3%
[8]
  Activity: 5.8%

## Fc1ccc(-c2cc(Oc3ccccc3)c3ccccc3n2)cc1
[1]
  Activity: 38.6%
[2]
  Activity: 39.8%

## Clc1cccc(-c2cc(Oc3ccccc3)c3ccccc3n2)c1
[1]
  Activity: 85.6%
[2]
  Activity: 89.1%

## COc1cc(-c2ccc(Cl)c(Cl)c2)nc2ccccc12
[1]
  Activity: 93.7%
[2]
  Activity: 96.1%

## O=[N+]([O-])c1ccc(Oc2cc(-c3cccc(C(F)(F)F)c3)nc3ccccc23)cc1
[1]
  Activity: 29.7%
[2]
  Activity: 32.8%

## O=[N+]([O-])c1ccc(Oc2cc(-c3ccc(Cl)cc3)nc3ccccc23)cc1
[1]
  Activity: 82.9%
[2]
  Activity: 81.7%

## COc1cc(-c2ccc(Cl)cc2)nc2ccccc12
[1]
  Activity: 97.3%
[2]
  Activity: 98.1%

## Cc1cc(C)cc(-c2ccc3ccccc3n2)c1
[1]
  Activity: 87.6%
[2]
  Activity: 84.9%

## Clc1ccc(-c2cc(Oc3ccccc3)c3ccccc3n2)cc1Cl
[1]
  Activity: 57.8%
[2]
  Activity: 60.8%

## FC(F)(F)c1ccc(Oc2cc(-c3cccc(Cl)c3)nc3ccccc23)cc1
[1]
  Activity: 38.3%
[2]
  Activity: 42.2%

Reference: ChEMBL document CHEMBL5143615, “Novel 2-aryl-4-aryloxyquinoline-based fungistatics for Mucor circinelloides. Biological evaluation of activity, QSAR and docking study” (Bioorg Med Chem Lett, 2022)
